Test results as given in ChEMBL document CHEMBL5120862, “Novel non-covalent LSD1 inhibitors endowed with anticancer effects in leukemia and solid tumor cellular models” (Eur J Med Chem, 2022).
The source made the active and inactive calls. The rule behind the calls is not given here.

Assays:
[1] = biological target: T1, LSD1/CoREST complex (Homo sapiens, UniProt O60341); test: Binding affinity to human LSD1/CoREST assessed as dissociation constant by competitive fluorescence polarization assay; assay type: protein-complex assay
[2] = test system: THP-1; test: Antiproliferative activity against human THP-1 cells assessed as inhibition of cell growth incubated for 24 hrs by CellTiter-Glo luminescent cell viability assay; assay type: functional, cell-based; details: THP-1, 24 h
[3] = Cytotoxicity against human derived mesenchymal stem cells assessed as residual cell viability at 1.25 uM measured after 72 hrs relative to control; assay type: toxicity, cell-based; details: read-out: Activity
[4] = biological target: T1, LSD1/CoREST complex; test: Inhibition of human LSD1/CoREST using histone H3 peptide as substrate by fluorescence polarization assay; assay type: protein-complex assay
[5] = test system: RD; test: Antiproliferative activity against human RD cells assessed as inhibition of cell growth incubated for 144 hrs; assay type: functional, cell-based
[6] = test system: MDA-MB-231; test: Antiproliferative activity against human MDA-MB-231 cells assessed as inhibition of cell growth measured after 72 hrs by MTT assay; assay type: functional, cell-based; details: MDA-MB-231, 72 h
[7] = test system: SJRH30; test: Antiproliferative activity against human Rh30 cells assessed as inhibition of cell growth incubated for 72 hrs; assay type: functional, cell-based; details: SJRH30, 72 h
[8] = test system: MV4-11; test: Induction of cell cycle arrest in human MV4-11 cells assessed as accumulation of cells at G1 phase at 0.2 to […] incubated for 24 hrs; assay type: functional, cell-based; details: dose 0.2-2.5 µM
[9] = test system: MV4-11; test: Induction of apoptosis in human MV4-11 cells assessed as accumulation of cells at sub-G1 phase incubated for 24 hrs; assay type: functional, cell-based; details: dose 0.2-25 µM, DDE = dose-dependent effect
[10] = biological target: Lysine-specific histone demethylase 1A (Homo sapiens) (UniProt O60341); test: Inhibition of LSD1 in human RD cells assessed as increase in H3K4me2 level at 2 uM incubated for 48 hrs by Western blot analysis; assay type: cell-based
[11] = biological target: Lysine-specific histone demethylase 1A (Homo sapiens) (UniProt O60341); test: Inhibition of LSD1 in human MV4-11 cells assessed as increase in CD86 expression level incubated for 24 hrs by qRT-PCR analysis; assay type: cell-based; details: dose 0.2-1 µM
[12] = test system: THP-1; test: Antiproliferative activity against human THP-1 cells assessed as inhibition of cell growth incubated for 72 hrs by CellTiter-Glo luminescent cell viability assay; assay type: functional, cell-based; details: THP-1, 72 h
[13] = biological target: T2, Histone-lysine N-methyltransferase EHMT2 (Homo sapiens, UniProt Q96KQ7); test: Inhibition of G9a (unknown origin) assessed as reduction in substrate methylation using histone H3 and SAM as substrate measured after 15 to 60 mins by microfluidic capillary electrophoresis analysis
T2 sequence (Q96KQ7 whole entry): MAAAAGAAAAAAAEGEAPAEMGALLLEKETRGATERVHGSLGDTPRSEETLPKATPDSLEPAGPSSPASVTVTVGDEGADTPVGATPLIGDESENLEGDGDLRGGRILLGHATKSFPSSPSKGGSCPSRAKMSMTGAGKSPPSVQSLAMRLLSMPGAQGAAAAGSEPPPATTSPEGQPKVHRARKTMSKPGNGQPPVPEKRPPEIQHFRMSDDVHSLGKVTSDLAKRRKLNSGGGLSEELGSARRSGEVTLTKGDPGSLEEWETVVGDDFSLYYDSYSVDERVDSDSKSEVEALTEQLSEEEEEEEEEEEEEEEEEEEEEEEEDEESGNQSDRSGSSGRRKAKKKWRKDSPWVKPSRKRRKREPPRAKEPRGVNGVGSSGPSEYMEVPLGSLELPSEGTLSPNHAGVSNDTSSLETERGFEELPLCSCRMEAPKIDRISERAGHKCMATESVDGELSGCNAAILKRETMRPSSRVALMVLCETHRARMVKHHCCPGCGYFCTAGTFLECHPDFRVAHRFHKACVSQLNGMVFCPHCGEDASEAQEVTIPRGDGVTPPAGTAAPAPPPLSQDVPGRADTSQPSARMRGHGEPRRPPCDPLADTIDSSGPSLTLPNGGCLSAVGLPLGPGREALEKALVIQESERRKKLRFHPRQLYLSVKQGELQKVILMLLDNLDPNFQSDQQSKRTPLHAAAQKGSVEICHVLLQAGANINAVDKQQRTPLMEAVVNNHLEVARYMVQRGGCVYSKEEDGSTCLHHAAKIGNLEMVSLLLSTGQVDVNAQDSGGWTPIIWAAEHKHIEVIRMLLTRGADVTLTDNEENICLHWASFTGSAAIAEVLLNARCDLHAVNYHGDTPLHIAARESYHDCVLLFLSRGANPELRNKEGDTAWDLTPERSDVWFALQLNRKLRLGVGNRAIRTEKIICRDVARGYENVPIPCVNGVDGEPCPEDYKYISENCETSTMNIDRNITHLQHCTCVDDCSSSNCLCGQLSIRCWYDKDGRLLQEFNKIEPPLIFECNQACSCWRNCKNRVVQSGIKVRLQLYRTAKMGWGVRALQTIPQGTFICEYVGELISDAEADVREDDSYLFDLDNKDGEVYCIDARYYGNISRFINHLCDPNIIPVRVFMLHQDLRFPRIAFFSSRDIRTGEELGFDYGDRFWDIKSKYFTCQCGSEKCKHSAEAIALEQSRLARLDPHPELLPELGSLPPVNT

[14] = biological target: Lysine-specific histone demethylase 1A (Homo sapiens) (UniProt O60341); test: Inhibition of LSD1 in human Rh30 cells assessed as increase in H3K4me2 level at 2 uM incubated for 48 hrs by Western blot analysis; assay type: cell-based
[15] = test system: SJRH30; test: Antiproliferative activity against human Rh30 cells assessed as reduction in live cells at 4 uM incubated for 24 hrs by calceinAM/propidium iodide staining based fluorescence microscopy; assay type: functional, cell-based
[16] = test system: SJRH30; test: Induction of apoptosis in human Rh30 cells assessed as increase in caspase 3/7 level at 4 uM incubated for 24 hrs; assay type: functional, cell-based
[17] = test system: SJRH30; test: Antiproliferative activity against human Rh30 cells assessed as inhibition of cell growth incubated for 24 hrs; assay type: functional, cell-based; details: SJRH30, 24 h
[18] = test system: RD; test: Induction of apoptosis in human RD cells assessed as increase in caspase 3/7 level at 4 uM incubated for 24 hrs; assay type: functional, cell-based
[19] = test system: RD; test: Antiproliferative activity against human RD cells assessed as inhibition of cell growth incubated for 72 hrs; assay type: functional, cell-based
[20] = test system: MV4-11; test: Antiproliferative activity against human MV4-11 cells assessed as inhibition of cell growth at […] incubated for 72 to 144 hrs by trypan blue staining based analysis; assay type: functional; details: dose 2.5 µM, time 72-144 hrs
[21] = biological target: Lysine-specific histone demethylase 1A (Homo sapiens) (UniProt O60341); test: Inhibition of LSD1 in human MV4-11 cells assessed as increase in H3K4me2 level at 0.2 to […] incubated for 24 hrs by Western blot analysis; assay type: cell-based; details: dose 0.2-2.5 µM
[22] = test system: SJRH30; test: Antiproliferative activity against human Rh30 cells assessed as inhibition of cell growth incubated for 144 hrs; assay type: functional, cell-based; details: SJRH30, 144 h
[23] = test system: THP-1; test: Antiproliferative activity against human THP-1 cells assessed as inhibition of cell growth incubated for 144 hrs by CellTiter-Glo luminescent cell viability assay; assay type: functional, cell-based; details: THP-1, 144 h
[24] = test system: RD; test: Antiproliferative activity against human RD cells assessed as reduction in live cells at 4 uM incubated for 72 hrs by calceinAM/propidium iodide staining based fluorescence microscopy; assay type: functional, cell-based
[25] = test system: RD; test: Antiproliferative activity against human RD cells assessed as inhibition of cell growth incubated for 24 hrs; assay type: functional, cell-based
[26] = biological target: Histone-lysine N-methyltransferase EZH2 (Homo sapiens) (UniProt Q15910); test: Inhibition of EZH2 (unknown origin) using [3H]SAM and chicken core histone as substrates at 100 uM incubated for 1 hr relative to control
[27] = biological target: Histone-lysine N-methyltransferase, H3 lysine-79 specific (Homo sapiens) (UniProt Q8TEK3); test: Inhibition of […] (unknown origin) using [3H]SAM and HeLa oligo nucleosomes as substrates at 100 uM incubated for 1 hr relative to control
[28] = biological target: T3, MAO-A (amine oxidase [flavin-containing] A) (Homo sapiens, UniProt P21397); test: Inhibition of human MAO-A using p-tyramine as substrate at 100 uM by fluorimetric analysis relative to control; details: human MAO-A enzyme, probe p-tyramine
T3 sequence (P21397 whole entry): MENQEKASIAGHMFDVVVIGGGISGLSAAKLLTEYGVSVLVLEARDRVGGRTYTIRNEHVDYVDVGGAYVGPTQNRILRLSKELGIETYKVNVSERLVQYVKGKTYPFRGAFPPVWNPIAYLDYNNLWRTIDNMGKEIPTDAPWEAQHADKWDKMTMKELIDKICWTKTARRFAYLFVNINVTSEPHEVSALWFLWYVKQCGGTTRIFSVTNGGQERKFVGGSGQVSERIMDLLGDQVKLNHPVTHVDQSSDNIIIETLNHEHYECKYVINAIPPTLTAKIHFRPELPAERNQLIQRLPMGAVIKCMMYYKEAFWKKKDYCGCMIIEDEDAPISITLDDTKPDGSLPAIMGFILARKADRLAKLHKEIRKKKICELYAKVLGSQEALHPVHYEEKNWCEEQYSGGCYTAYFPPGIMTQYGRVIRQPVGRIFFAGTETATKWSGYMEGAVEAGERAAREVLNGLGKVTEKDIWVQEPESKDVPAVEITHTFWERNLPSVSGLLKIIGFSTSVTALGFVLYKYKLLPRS

[29] = biological target: T4, MAO-B (amine oxidase [flavin-containing] B) (Homo sapiens, UniProt P27338); test: Inhibition of human MAO-B using p-tyramine as substrate at 100 uM by fluorimetric analysis relative to control; details: human MAO-B enzyme, probe p-tyramine
T4 sequence (P27338 whole entry): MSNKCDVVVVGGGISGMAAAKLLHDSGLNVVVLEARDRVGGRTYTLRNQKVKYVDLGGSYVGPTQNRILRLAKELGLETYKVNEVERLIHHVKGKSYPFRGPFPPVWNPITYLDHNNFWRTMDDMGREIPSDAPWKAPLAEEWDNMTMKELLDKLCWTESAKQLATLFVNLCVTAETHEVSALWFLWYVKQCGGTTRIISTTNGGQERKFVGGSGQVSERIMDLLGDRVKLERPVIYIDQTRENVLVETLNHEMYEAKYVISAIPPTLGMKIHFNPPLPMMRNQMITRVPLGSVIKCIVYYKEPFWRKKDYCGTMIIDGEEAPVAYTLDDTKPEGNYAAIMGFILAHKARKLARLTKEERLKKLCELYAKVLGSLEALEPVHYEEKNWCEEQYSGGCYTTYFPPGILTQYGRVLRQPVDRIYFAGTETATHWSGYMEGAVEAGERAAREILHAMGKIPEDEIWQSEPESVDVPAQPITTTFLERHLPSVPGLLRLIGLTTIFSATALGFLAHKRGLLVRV

[30] = Cytotoxicity against human AHH-1 cells assessed as residual cell viability at 1 uM measured after 72 hrs by MTT assay relative to control; assay type: toxicity, cell-based; details: read-out: Activity
[31] = biological target: Lysine-specific histone demethylase 1A (Homo sapiens) (UniProt O60341); test: Inhibition of LSD1 in human Rh30 cells assessed as increase in H3K4me2 level at 1 uM incubated for 48 hrs by Western blot analysis; assay type: cell-based
[32] = test system: SJRH30; test: Antiproliferative activity against human Rh30 cells assessed as reduction in live cells at 2 uM incubated for 24 hrs by calceinAM/propidium iodide staining based fluorescence microscopy; assay type: functional, cell-based
[33] = biological target: Lysine-specific histone demethylase 1A (Homo sapiens) (UniProt O60341); test: Inhibition of LSD1 in human RD cells assessed as increase in H3K4me2 level at 1 uM incubated for 48 hrs by Western blot analysis; assay type: cell-based
[34] = Cytotoxicity against HMEC cells assessed as residual cell viability at 1 uM incubated for 72 hrs by MTT assay relative to control; assay type: toxicity, cell-based; details: human, read-out: Activity
[35] = test system: SJRH30; test: Induction of apoptosis in human Rh30 cells assessed as increase in caspase 3/7 level at 2 uM incubated for 24 hrs; assay type: functional, cell-based
[36] = test system: RD; test: Antiproliferative activity against human RD cells assessed as reduction in live cells at 2 uM incubated for 72 hrs by calceinAM/propidium iodide staining based fluorescence microscopy; assay type: functional, cell-based
[37] = test system: RD; test: Induction of apoptosis in human RD cells assessed as increase in caspase 3/7 level at 2 uM incubated for 24 hrs; assay type: functional, cell-based

Chain of Histone-lysine N-methyltransferase EZH2 (Homo sapiens) (Q15910 whole entry, looked up): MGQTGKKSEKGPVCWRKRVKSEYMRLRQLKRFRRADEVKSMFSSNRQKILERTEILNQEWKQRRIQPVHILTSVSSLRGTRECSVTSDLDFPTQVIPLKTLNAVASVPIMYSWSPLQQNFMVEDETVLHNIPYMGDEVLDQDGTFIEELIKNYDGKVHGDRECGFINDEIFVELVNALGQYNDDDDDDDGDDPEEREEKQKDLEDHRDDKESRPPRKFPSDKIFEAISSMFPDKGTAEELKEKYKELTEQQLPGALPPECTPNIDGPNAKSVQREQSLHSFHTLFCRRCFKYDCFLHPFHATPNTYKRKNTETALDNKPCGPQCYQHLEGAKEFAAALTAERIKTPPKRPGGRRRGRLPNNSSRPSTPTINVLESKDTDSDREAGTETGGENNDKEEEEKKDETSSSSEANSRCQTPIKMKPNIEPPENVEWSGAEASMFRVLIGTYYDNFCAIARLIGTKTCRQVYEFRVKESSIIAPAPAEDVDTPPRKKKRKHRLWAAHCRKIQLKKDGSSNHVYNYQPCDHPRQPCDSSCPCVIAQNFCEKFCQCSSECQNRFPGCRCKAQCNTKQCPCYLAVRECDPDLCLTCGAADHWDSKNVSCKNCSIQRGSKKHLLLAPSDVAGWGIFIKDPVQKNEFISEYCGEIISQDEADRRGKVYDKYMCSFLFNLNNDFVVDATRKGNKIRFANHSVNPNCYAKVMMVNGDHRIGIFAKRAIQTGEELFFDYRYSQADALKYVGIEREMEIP
Chain of Histone-lysine N-methyltransferase, H3 lysine-79 specific (Homo sapiens) (Q8TEK3 whole entry, looked up): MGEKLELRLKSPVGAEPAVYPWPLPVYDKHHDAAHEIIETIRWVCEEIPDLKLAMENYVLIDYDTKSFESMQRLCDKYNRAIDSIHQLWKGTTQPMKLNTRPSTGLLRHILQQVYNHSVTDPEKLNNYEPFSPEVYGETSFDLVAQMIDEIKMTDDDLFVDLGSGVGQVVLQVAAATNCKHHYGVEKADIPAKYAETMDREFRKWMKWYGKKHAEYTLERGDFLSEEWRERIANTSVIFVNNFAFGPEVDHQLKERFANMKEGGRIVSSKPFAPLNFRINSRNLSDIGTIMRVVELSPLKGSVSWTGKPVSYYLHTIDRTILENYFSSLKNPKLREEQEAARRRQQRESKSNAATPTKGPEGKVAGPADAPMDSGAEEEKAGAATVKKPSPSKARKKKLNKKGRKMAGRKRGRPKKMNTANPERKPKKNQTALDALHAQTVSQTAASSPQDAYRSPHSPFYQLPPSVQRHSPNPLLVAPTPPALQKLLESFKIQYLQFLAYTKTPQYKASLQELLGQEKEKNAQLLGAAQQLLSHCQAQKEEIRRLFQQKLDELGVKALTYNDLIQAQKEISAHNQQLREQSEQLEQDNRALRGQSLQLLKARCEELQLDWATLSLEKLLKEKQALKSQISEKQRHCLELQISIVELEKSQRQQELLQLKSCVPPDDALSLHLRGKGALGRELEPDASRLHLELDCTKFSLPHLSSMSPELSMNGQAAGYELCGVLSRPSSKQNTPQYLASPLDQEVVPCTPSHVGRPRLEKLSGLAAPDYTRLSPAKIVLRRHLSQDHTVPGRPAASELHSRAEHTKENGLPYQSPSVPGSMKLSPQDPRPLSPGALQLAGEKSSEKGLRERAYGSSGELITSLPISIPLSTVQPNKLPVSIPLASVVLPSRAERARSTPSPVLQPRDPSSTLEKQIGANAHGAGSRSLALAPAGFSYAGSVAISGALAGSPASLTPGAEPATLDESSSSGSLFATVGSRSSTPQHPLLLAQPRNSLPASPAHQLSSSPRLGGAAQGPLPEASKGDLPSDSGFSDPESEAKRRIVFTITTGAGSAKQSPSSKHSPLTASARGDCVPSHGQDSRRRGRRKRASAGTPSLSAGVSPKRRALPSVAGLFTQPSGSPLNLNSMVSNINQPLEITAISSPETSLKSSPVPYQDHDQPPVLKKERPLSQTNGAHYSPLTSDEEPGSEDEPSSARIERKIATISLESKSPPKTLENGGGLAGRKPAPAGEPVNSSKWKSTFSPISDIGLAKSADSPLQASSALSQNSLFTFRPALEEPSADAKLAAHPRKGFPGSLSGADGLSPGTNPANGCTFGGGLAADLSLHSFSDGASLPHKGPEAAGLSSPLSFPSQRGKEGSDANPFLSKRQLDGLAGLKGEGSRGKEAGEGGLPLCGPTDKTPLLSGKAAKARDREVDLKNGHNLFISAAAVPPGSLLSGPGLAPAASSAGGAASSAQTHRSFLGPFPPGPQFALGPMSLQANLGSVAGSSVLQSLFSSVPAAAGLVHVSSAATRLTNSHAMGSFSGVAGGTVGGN

Structure (SMILES)	Kd [1] [nM]	IC50 [2] [nM]	viability at 72 h, 1.25 µM [3] [%]	Ki [4] [nM]	IC50 [5] [nM]	IC50 [6] [nM]	IC50 [7] [nM]	Activity [8]	Activity [9]	IC50 [12] [nM]	Ki [13] [nM]	IC50 [17] [nM]	IC50 [19] [nM]	inhibition [20]	inhibition [21]	IC50 [22] [nM]	IC50 [23] [nM]	IC50 [25] [nM]	other results
C#CCN(C)CCCNc1nc(NC2CCN(Cc3ccccc3)CC2)c2cc(OC)c(OC)cc2n1	64	420	96	153	1420	3400	1530	Active	Dde	340	26100	1760	1920	Active	Active	1420	160	4560	inhibition [10]: Active; inhibition [11]: Active; inhibition [14]: Active; Activity [15]: Active; Activity [16]: Active; Activity [18]: Active; Activity [24]: Active
COc1cc2nc(NCCCN(C)C)nc(NC3CCN(CCCc4ccccc4)CC3)c2cc1OC		490				800				390	690						220		inhibition [26]: 2.9%; inhibition [27]: 30.3%; inhibition at 100 µM [28]: 7.4%; inhibition at 100 µM [29]: 0.3%
COc1cc2nc(NCCCN(C)C)nc(NC3CCN(Cc4ccc5ccccc5c4)CC3)c2cc1OC	75	300	96	156	900	210	910	Active	Dde	160	2930	1210	1230	Active	Active	690	92	2280	viability at 72 h, 1 µM [30]: 81.5%; inhibition [31]: Active; Activity [32]: Active; inhibition [33]: Active; viability at 72 h, 1 µM [34]: 96.5%; Activity [35]: Active; Activity [36]: Active; Activity [37]: Active
